According to patent US10544103B2, “5-HT2 antagonists” (ANAMAR AB, priority 2015, dated 2020):

Biological target: T1, 5-HT2B receptor (Homo sapiens, UniProt P41595)
T1 construct: host or cells: CHO-K1
Assay: 5-HT2B receptor binding, 3H-LSD ligand displacement assay
Details: for inhibition at 0.01 µM: 0.01 uM compound; for inhibition at 0.1 µM: 0.1 uM compound; for inhibition at 1 µM: 1 uM compound; for inhibition at 0.001 µM: 0.001 uM compound
Description: 5-HT2B receptor binding (performed at Eurofins Panlabs Taiwan, Ltd.) to human receptor protein expressed in CHO-K1 cells was determined in a ligand displacement assay using ^3H-lysergic acid diethylamide (LSD) as radioligand and ketanserine as a standard reference compound. Data is presented as % displacement of radioligand at indicated compound concentrations, see Table 1 and Table 2.

T1 sequence (P41595 whole entry): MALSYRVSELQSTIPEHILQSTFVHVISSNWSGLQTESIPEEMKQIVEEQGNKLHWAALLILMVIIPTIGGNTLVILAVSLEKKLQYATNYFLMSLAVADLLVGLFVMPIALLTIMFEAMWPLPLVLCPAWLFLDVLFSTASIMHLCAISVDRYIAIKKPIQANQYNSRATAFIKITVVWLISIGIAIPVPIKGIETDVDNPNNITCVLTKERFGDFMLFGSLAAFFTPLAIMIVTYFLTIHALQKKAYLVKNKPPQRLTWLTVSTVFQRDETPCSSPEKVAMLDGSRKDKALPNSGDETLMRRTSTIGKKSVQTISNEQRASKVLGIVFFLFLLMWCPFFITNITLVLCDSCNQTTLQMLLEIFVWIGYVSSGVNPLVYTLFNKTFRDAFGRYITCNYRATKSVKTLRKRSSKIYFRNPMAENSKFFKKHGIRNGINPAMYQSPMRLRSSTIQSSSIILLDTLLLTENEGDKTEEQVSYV

Row | inhibition at 10 µM (10 uM compound) [%] | SMILES | inhibition at 0.01 µM [%] | inhibition at 0.1 µM [%] | inhibition at 1 µM [%] | inhibition at 0.001 µM [%]
1 | – | COc1cc(F)ccc1C1=NN(C(=N)N)CC1C (centres unmarked) [Example 49, 3-(4-Fluoro-2-methoxyphenyl)-4-methyl-4,5-dihydro-1H-pyrazole-1-carboximidamide] | 11 | 28 | 78 | –
2 | – | CC1CN(C(=N)NC2CCCCC2)N=C1c1cccc(Cl)c1O (centres unmarked) [Example 85, 3-(3-Chloro-2-hydroxyphenyl)-N-cyclohexyl-4-methyl-4,5-dihydro-1H-pyrazole-1-carboximidamide] | 93 | 101 | – | 47
3 | – | COc1c(Cl)cccc1C1=NN(C(=N)NC2CC2)CC1C (centres unmarked) [Example 86, 3-(3-Chloro-2-methoxyphenyl)-N-cyclopropyl-4-methyl-4,5-dihydro-1H-pyrazole-1-carboximidamide] | 29 | 83 | – | -14
4 | – | N=C(N)N1CCC(c2ccccc2F)=N1 [Example 11, 3-(2-Fluorophenyl)-4,5-dihydro-1H-pyrazole-1-carboximidamide] | – | 10 | 53 | –
5 | – | COc1ccc(CNC(=N)N2CC(C)C(c3ccccc3O)=N2)cc1OC (centres unmarked) [Example 60, N-(3,4-Dimethoxybenzyl)-3-(2-hydroxyphenyl)-4-methyl-4,5-dihydro-1H-pyrazole-1-carboximidamide] | 28 | – | – | 6
6 | – | COc1c(Cl)cccc1C1=NN(C(=N)N)CC1C (centres unmarked) [Example 53, 3-(3-Chloro-2-methoxyphenyl)-4-methyl-4,5-dihydro-1H-pyrazole-1-carboximidamide] | 40 | 87 | 100 | –
7 | – | COc1ccccc1C1=NN(C(=N)Nc2ccc(C(F)(F)F)cc2)CC1C (centres unmarked) [Example 98, 3-(2-Methoxyphenyl)-4-methyl-N-(4-(trifluoromethyl)phenyl)-4,5-dihydro-1H-pyrazole-1-carboximidamide] | 41 | 86 | – | 5
8 | – | CCCCCCNC(=N)N1CC(C)C(c2cccc(Cl)c2OC)=N1 (centres unmarked) [Example 80, 3-(3-Chloro-2-methoxyphenyl)-N-hexyl-4-methyl-4,5-dihydro-1H-pyrazole-1-carboximidamide] | 68 | 97 | – | 13
9 | 100 | N=C(N)N1CCC(c2ccccc2Cl)=N1 [Example 5, 3-(2-Chlorophenyl)-4,5-dihydro-1H-pyrazole-1-carboximidamide] | – | – | 95 | –
10 | – | N=C(N)N1CCC(c2coc3ccccc23)=N1 [Example 14, 3-(Benzofuran-3-yl)-4,5-dihydro-1H-pyrazole-1-carboximidamide] | – | 40 | 88 | –
11 | – | CC1CN(C(=N)Nc2ccccc2)N=C1c1cccc(Cl)c1O (centres unmarked) [Example 89, 3-(3-Chloro-2-hydroxyphenyl)-4-methyl-N-phenyl-4,5-dihydro-1H-pyrazole-1-carboximidamide] | 100 | 97 | – | 88
12 | – | CC1CN(C(=N)NCc2ccccc2)N=C1c1ccccc1O (centres unmarked) [Example 42, N-Benzyl-3-(2-hydroxyphenyl)-4-methyl-4,5-dihydro-1H-pyrazole-1-carboximidamide] | 97 | 98 | 99 | 49
13 | – | CC1CN(C(=N)NCc2ccc(Cl)cc2Cl)N=C1c1ccccc1O (centres unmarked) [Example 57, N-(2,4-Dichlorobenzyl)-3-(2-hydroxyphenyl)-4-methyl-4,5-dihydro-1H-pyrazole-1-carboximidamide] | 78 | – | – | 21
14 | – | COc1ccccc1C1=NN(C(=N)Nc2ccc(F)cc2)CC1C (centres unmarked) [Example 100, N-(4-Fluorophenyl)-3-(2-methoxyphenyl)-4-methyl-4,5-dihydro-1H-pyrazole-1-carboximidamide] | 27 | 78 | – | 19
15 | – | COc1ccccc1C1=NN(C(=N)Nc2ccc(Cl)cc2)CC1C (centres unmarked) [Example 102, N-(4-Chlorophenyl)-3-(2-methoxyphenyl)-4-methyl-4,5-dihydro-1H-pyrazole-1-carboximidamide] | 44 | 92 | – | 17
16 | – | N=C(N)N1N=C(c2ccccc2Cl)C2CCCC21 (centres unmarked) [Example 30, 3-(2-Chlorophenyl)-4,5,6,6a-tetrahydrocyclopenta[c]pyrazole-1(3aH)-carboximidamide] | – | 44 | 88 | –
17 | – | CC(C)c1ccccc1C1=NN(C(=N)N)CC1 [Example 8, 3-(2-Isopropylphenyl)-4,5-dihydro-1H-pyrazole-1-carboximidamide] | – | 80 | 95 | –
18 | – | COc1c(Cl)cccc1C1=NN(C(=N)Nc2ccc(F)cc2)CC1C (centres unmarked) [Example 108, 3-(3-Chloro-2-methoxyphenyl)-N-(4-fluorophenyl)-4-methyl-4,5-dihydro-1H-pyrazole-1-carboximidamide] | 83 | 101 | – | 29

Row | inhibition at 10 µM (10 uM compound) [%] | SMILES | inhibition at 0.01 µM [%] | inhibition at 0.1 µM [%] | inhibition at 1 µM [%] | inhibition at 0.001 µM [%]
19 | – | CC1CN(C(=N)N)N=C1c1cccc(F)c1O (centres unmarked) [Example 48, 3-(3-Fluoro-2-hydroxyphenyl)-4-methyl-4,5-dihydro-1H-pyrazole-1-carboximidamide] | 54 | 85 | 95 | –
20 | – | CC1CN(C(=N)NC#N)N=C1c1cccc(Cl)c1O (centres unmarked) [Example 91, 3-(3-Chloro-2-hydroxyphenyl)-N-cyano-4-methyl-4,5-dihydro-1H-pyrazole-1-carboximidamide] | 27 | 74 | – | -15
21 | – | CC1CN(C(=N)N)N=C1c1cccc2ccccc12 (centres unmarked) [Example 24, 4-Methyl-3-(naphthalen-1-yl)-4,5-dihydro-1H-pyrazole-1-carboximidamide] | 39 | 86 | 102 | –
22 | – | COc1c(Cl)cccc1C1=NN(C(=N)Nc2ccccc2)CC1C (centres unmarked) [Example 88, 3-(3-Chloro-2-methoxyphenyl)-4-methyl-N-phenyl-4,5-dihydro-1H-pyrazole-1-carboximidamide] | 92 | 97 | – | 53
23 | – | COc1ccc(NC(=N)N2CC(C)C(c3ccccc3O)=N2)cc1 (centres unmarked) [Example 105, 3-(2-Hydroxyphenyl)-N-(4-methoxyphenyl)-4-methyl-4,5-dihydro-1H-pyrazole-1-carboximidamide] | 95 | 106 | – | 46
24 | – | COc1ccccc1C1=NN(C(=N)Nc2ccccc2)CC1C (centres unmarked) [Example 96, 3-(2-Methoxyphenyl)-4-methyl-N-phenyl-4,5-dihydro-1H-pyrazole-1-carboximidamide] | 43 | 93 | – | 19
25 | – | CCCCCCCCCCCCNC(=N)N1CC(C)C(c2cccc(Cl)c2OC)=N1 (centres unmarked) [Example 82, 3-(3-Chloro-2-methoxyphenyl)-N-dodecyl-4-methyl-4,5-dihydro-1H-pyrazole-1-carboximidamide] | -4 | 51 | – | 0
26 | – | CC1CN(C(=N)N)N=C1c1ccc(F)cc1O (centres unmarked) [Example 50, 3-(4-Fluoro-2-hydroxyphenyl)-4-methyl-4,5-dihydro-1H-pyrazole-1-carboximidamide] | 42 | 87 | 96 | –
27 | – | COc1ccc(CNC(=N)N2CC(C)C(c3ccccc3O)=N2)cc1 (centres unmarked) [Example 59, 3-(2-Hydroxyphenyl)-N-(4-methoxybenzyl)-4-methyl-4,5-dihydro-1H-pyrazole-1-carboximidamide] | 74 | – | – | 20
28 | – | CCCCCCNC(=N)N1CC(C)C(c2cccc(Cl)c2O)=N1 (centres unmarked) [Example 81, 3-(3-Chloro-2-hydroxyphenyl)-N-hexyl-4-methyl-4,5-dihydro-1H-pyrazole-1-carboximidamide] | 96 | 97 | – | 62
29 | – | CC1CN(C(=N)NCCc2ccccc2)N=C1c1ccccc1O (centres unmarked) [Example 65, 3-(2-hydroxyphenyl)-4-methyl-N-phenethyl-4,5-dihydro-1H-pyrazole-1-carboximidamide] | 89 | – | – | 48
30 | – | N=C(N)N1CCC(c2ccc3ccccc3c2)=N1 [Example 12, 3-(Naphthalen-2-yl)-4,5-dihydro-1H-pyrazole-1-carboximidamide, reference compound] | – | 18 | 76 | –
31 | – | CNC(=N)N1CC(C)C(c2ccccc2O)=N1 (centres unmarked) [Example 40, 3-(2-Hydroxyphenyl)-N,4-dimethyl-4,5-dihydro-1H-pyrazole-1-carboximidamide] | 42 | 92 | 99 | 1
32 | – | N=C(N)N1CCC(c2ccccc2N)=N1 [Example 31, 3-(2-Aminophenyl)-4,5-dihydro-1H-pyrazole-1-carboximidamide] | – | 21 | 69 | –
33 | – | Cc1c(C2=NN(C(=N)N)C(C)C2)sc2ccccc12 (centres unmarked) [Example 29, 5-Methyl-3-(3-methylbenzo[b]thiophen-2-yl)-4,5-dihydro-1H-pyrazole-1-carboximidamide] | – | 69 | 97 | –
34 | – | CC1CN(C(=N)Nc2ccc(F)cc2)N=C1c1ccccc1O (centres unmarked) [Example 101, N-(4-Fluorophenyl)-3-(2-hydroxyphenyl)-4-methyl-4,5-dihydro-1H-pyrazole-1-carboximidamide] | 91 | 102 | – | 55
35 | – | CC1CN(C(=N)Nc2ccc(C(F)(F)F)cc2)N=C1c1ccccc1O (centres unmarked) [Example 99, 3-(2-Hydroxyphenyl)-4-methyl-N-(4-(trifluoromethyl)phenyl)-4,5-dihydro-1H-pyrazole-1-carboximidamide] | 89 | 103 | – | 48
